Results published in patent US20220127297A1, “Novel Antibacterial 3"-Derivatives Of 4,6-Disubstituted 2,5-Dideoxystreptamine Aminoglycoside Antibiotics” (AGILeBiotics B.V., priority 2018, published 2022).
In brackets after ≈: the same amount, converted by molar mass.

Tests used:
[1] = test system: clinical isolates of methicillin-resistant Staphylococcus aureus (MRSA); assay: MIC determination at Fidelta, clinical isolates; type: cell-based
Summary of the method: (§1)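 Clinical isolates and ATCC reference strains revived on MH agar, tested by broth microdilution in Mueller Hinton broth. Compounds from 5 mg/mL DMSO stocks, two-fold serial dilutions, final 64-0.125 μg/mL.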

[2] = Maximum tolerated dose (MTD) / acute toxicity study, IV; type: in vivo; details: for MTD at 4 days / LD50 at 4 days: male, CD (Sprague Dawley), rat, in vivo, iv; for LD50 at 4 days / LD50: rats, one-time IV dose over 15 min
Procedure: 4.4 Maximum Tolerated Dose (MTD) Study in Male CD (Sprague Dawley) Rats.
The study was performed in an AAALAC I—approved Facility. The standard study plan relating to this study was reviewed by the Ethical Committee (CARE-Zagreb) as required by International Laws/Regulations and Croatian Low on Animal Welfare (“The Animal Protection Act”, Official Gazette, NN 37/13) and Animal Welfare Officer.
In vivo studies were performed by Fidelta (Zagreb, Croatia) and all rats (Sprague Dawley) were obtained from Charles River Laboratories (Italy). Three compounds, i.e. ABX5006, ABX5020 and ABX5039 were tested to determine the MTD of the test articles in male CD (Sprague Dawley) rats following a one-time dose (IV).
MTD study: Pathogen-free male CD (Sprague Dawley) rats (3 rats per dosing group) weighing 225-260 g were used. Five different dosing groups (50 mg/kg, 75 mg/kg, 100 mg/kg, 150 mg/kg and 200 mg/kg) were used and the test article was administered intravenous over 15 min (slow injection, 5 mL/kg). […] Clinical signs, body weight, food consumption and mortality was recorded during the in-life phase of the study. All animals surviving to the end of the 4 day monitoring period were euthanized on day 4. Terminal studies included gross necropsy and organ weight recording of all animals.
Supplies/Chemicals. Sterile, single used needles (25 G Microlance, REF300400, Becton Dickinson); 2 mL syringes (REF300185, Becton Dickinson); Phosphate buffered saline (P3813, Sigma Aldrich); isoflurane anesthesia (Abbott, Netherlands)
Anesthesia. Animals were deeply anaesthetized using isoflurane and subsequently exsangunated for full post mortem examination.

[3] = test system: clinical isolates of multidrug-resistant Acinetobacter baumannii (and ATCC17978); assay: MIC determination at Fidelta, clinical isolates; type: cell-based
Summary of the method: as §1

[4] = test system: clinical isolates of multidrug-resistant Pseudomonas aeruginosa (and ATCC27853); assay: MIC determination at Fidelta, clinical isolates; type: cell-based
Summary of the method: as §1

[5] = AB-2017, Bronchial aspirate/CRAB
[6] = AB-2019, Bronchial aspirate/CRAB

| Compound | MIC90 ([1]; MRSA-1995, Liquor) | MIC90 ([1]; MRSA-1998, Wound) | MIC90 ([1]; MRSA-1999, Skin) | MIC90 ([1]; MRSA-2003, Wound) | MTD at 4 days [2] | LD50 at 4 days [2] | MIC90 ([3]; A. baumannii ATCC17978 strain) | MIC90 ([3]; AB-1931, Urine/CRAB) | MIC90 ([3]; AB-1932, Urine (catheter)/CRAB) | MIC90 ([3]; AB-1964, Blood) | MIC90 [3, 5] | MIC90 ([3]; AB-2018, Skin/CRAB) | MIC90 [3, 6] | MIC90 ([4]; P. aeruginosa ATCC27853 strain) | MIC90 ([4]; PA-1948, Wound/OXA-2) | MIC90 ([4]; PA-1949, Urine/OXA-2) | MIC90 ([4]; PA-1950, Sputum/OXA-2) | MIC90 ([4]; PA-1952, Wound/OXA-2) | MIC90 ([4]; PA-1953, Urine/MDR) | MIC90 ([4]; PA-1954, Sputum/OXA-2) | also measured |
| --- | --- | --- | --- | --- | --- | --- | --- | --- | --- | --- | --- | --- | --- | --- | --- | --- | --- | --- | --- | --- | --- |
| NCC[C@H](O)C(=O)N[C@@H]1C[C@H](N)[C@@H](O[C@H]2O[C@H](CN)[C@@H](O)[C@H](O)[C@H]2O)[C@H](O)[C@H]1O[C@H]1O[C@H](CO)[C@@H](O)[C@H](N)[C@H]1O [Amikacin, amikacin, reference compound] | 4 µg/mL (≈ 6.83 µM) | 4 µg/mL (≈ 6.83 µM) | 8 µg/mL (≈ 13.7 µM) | 4 µg/mL (≈ 6.83 µM) | – | – | – | – | – | – | – | – | – | – | – | – | – | – | – | – | – |
| N=C(NC[C@@H]1CCNC1)NC1[C@@H](O)C(OC2[C@@H](F)[C@H](O[C@H]3OC(CN)[C@@H](O)CC3N)C(N)C[C@H]2NC(=O)[C@@H](O)CCN)O[C@H](CO)[C@H]1O (stereo partly drawn) [ABX5039, Tobra-AHB-F-Gua (R) pyrrolidine-3-ylmethyl] | 0.5 µg/mL (≈ 0.719 µM) | 0.25 µg/mL (≈ 0.359 µM) | 0.25 µg/mL (≈ 0.359 µM) | 0.5 µg/mL (≈ 0.719 µM) | 75 mg/kg | > 75 mg/kg | 0.5 µg/mL (≈ 0.719 µM) | 1 µg/mL (≈ 1.44 µM) | 1 µg/mL (≈ 1.44 µM) | 1 µg/mL (≈ 1.44 µM) | 1 µg/mL (≈ 1.44 µM) | 1 µg/mL (≈ 1.44 µM) | 1 µg/mL (≈ 1.44 µM) | 0.5 µg/mL (≈ 0.719 µM) | 1 µg/mL (≈ 1.44 µM) | 8 µg/mL (≈ 11.5 µM) | 1 µg/mL (≈ 1.44 µM) | 4 µg/mL (≈ 5.75 µM) | 32 µg/mL (≈ 46 µM) | 1 µg/mL (≈ 1.44 µM) | LD50 [2]: 75 to 100 mg/kg; MIC90 ([3]; AB-2025, Skin): 1 µg/mL (≈ 1.44 µM); MIC90 ([3]; AB-2026, Skin): 2 µg/mL (≈ 2.87 µM); MIC90 ([4]; PA-1967, Blood/VIM): 4 µg/mL (≈ 5.75 µM) |
| N=C(NC[C@@H]1CCCN1)NC1[C@@H](O)C(OC2[C@@H](F)[C@H](O[C@H]3OC(CN)[C@@H](O)CC3N)C(N)C[C@H]2NC(=O)[C@@H](O)CCN)O[C@H](CO)[C@H]1O (stereo partly drawn) [ABX5026, Tobra-AHB-F-Gua (S) pyrrolidine-2-yl-methyl] | 0.5 µg/mL (≈ 0.719 µM) | 0.25 µg/mL (≈ 0.359 µM) | 0.5 µg/mL (≈ 0.719 µM) | 0.5 µg/mL (≈ 0.719 µM) | 75 mg/kg | > 75 mg/kg | 0.5 µg/mL (≈ 0.719 µM) | 1 µg/mL (≈ 1.44 µM) | 1 µg/mL (≈ 1.44 µM) | 2 µg/mL (≈ 2.87 µM) | 1 µg/mL (≈ 1.44 µM) | 1 µg/mL (≈ 1.44 µM) | 1 µg/mL (≈ 1.44 µM) | 1 µg/mL (≈ 1.44 µM) | 1 µg/mL (≈ 1.44 µM) | 16 µg/mL (≈ 23 µM) | 1 µg/mL (≈ 1.44 µM) | 8 µg/mL (≈ 11.5 µM) | 32 µg/mL (≈ 46 µM) | 1 µg/mL (≈ 1.44 µM) | MIC90 ([3]; AB-2025, Skin): 1 µg/mL (≈ 1.44 µM); MIC90 ([3]; AB-2026, Skin): 2 µg/mL (≈ 2.87 µM); MIC90 ([4]; PA-1967, Blood/VIM): 8 µg/mL (≈ 11.5 µM) |
| N=C(N)NC1C(O)[C@@H](CO)OC(OC2C(F)[C@H](O[C@H]3OC(CN)[C@@H](O)CC3N)C(N)C[C@H]2NC(=O)[C@@H](O)CCN)[C@@H]1O (stereo partly shown) [ABX5006, Tobra-AHB-F-Gua] | 0.5 µg/mL (≈ 0.816 µM) | 0.25 µg/mL (≈ 0.408 µM) | 0.5 µg/mL (≈ 0.816 µM) | 0.5 µg/mL (≈ 0.816 µM) | 150 mg/kg | > 200 mg/kg | <0.125 µg/mL | 0.5 µg/mL (≈ 0.816 µM) | 1 µg/mL (≈ 1.63 µM) | 1 µg/mL (≈ 1.63 µM) | 0.5 µg/mL (≈ 0.816 µM) | 1 µg/mL (≈ 1.63 µM) | 1 µg/mL (≈ 1.63 µM) | 0.25 µg/mL (≈ 0.408 µM) | 0.5 µg/mL (≈ 0.816 µM) | 8 µg/mL (≈ 13.1 µM) | 1 µg/mL (≈ 1.63 µM) | 4 µg/mL (≈ 6.53 µM) | 8 µg/mL (≈ 13.1 µM) | 0.5 µg/mL (≈ 0.816 µM) | LD50 [2]: >200 mg/kg; MIC90 ([3]; AB-2025, Skin): 0.5 µg/mL (≈ 0.816 µM); MIC90 ([3]; AB-2026, Skin): 1 µg/mL (≈ 1.63 µM); MIC90 ([4]; PA-1967, Blood/VIM): 4 µg/mL (≈ 6.53 µM) |
| N=C(NCCN)NC1C(O)[C@@H](CO)OC(OC2C(F)[C@H](O[C@H]3OC(CN)[C@@H](O)CC3N)C(N)C[C@H]2NC(=O)[C@@H](O)CCN)[C@@H]1O (stereo partly shown) [ABX5020, Tobra-AHB-F-Gua-2-amino-ethyl] | – | – | – | – | – | – | 0.5 µg/mL (≈ 0.763 µM) | 1 µg/mL (≈ 1.53 µM) | 1 µg/mL (≈ 1.53 µM) | – | 1 µg/mL (≈ 1.53 µM) | 2 µg/mL (≈ 3.05 µM) | 2 µg/mL (≈ 3.05 µM) | 0.25 µg/mL (≈ 0.381 µM) | 1 µg/mL (≈ 1.53 µM) | 8 µg/mL (≈ 12.2 µM) | 1 µg/mL (≈ 1.53 µM) | 8 µg/mL (≈ 12.2 µM) | 16 µg/mL (≈ 24.4 µM) | 0.5 µg/mL (≈ 0.763 µM) | – |
